# Data reported in patent US7709475B2, “Selective inhibitors against Cdk4 and Cdk6 having aminothiazole skeleton” (Banyu Pharmaceutical Co., Ltd., priority 2004, dated 2010).
# Legend:
# KU812 = test: Inhibitory action against cell proliferation (WST-8), KU812; format: cell-based; details: Homo sapiens, 72 h, KU812 cells, 3 days culture, read-out: concentration for 50% inhibition of cell proliferation (IC50), KU812
# Description: (§1) Clinically isolated cancer cell lines EOL-1, KU812 and JURKAT were cultured in RPMI1640 medium containing 10% fetal calf serum at 37° C. in the presence of 5% CO2 under an atmosphere of saturated steam.
# (§2) The inhibitory action against cell proliferation was measured by modifying the method of Skehan et al. [J. Natl. Cancer Inst., Vo. 82, 1107-1112 (1990)] according to the method of Ishiyama et al. [Talanta, Vol. 44, 1299 (1997)]. 100 μL each of cell culture medium containing 1×10^3 live cells of EOL-1, KU812 and JURKAT, respectively, was dispensed into each well of a 96-well cell culture dish, and the cells were cultured overnight. On the next day, a dilution series of solutions in DMSO was prepared from a DMSO solution of the compound of each Example. Then, the dilution series of solutions or DMSO only as a control for no drug addition were separately added to the medium for cell culture. Finally, 100 μL each of the culture medium containing either the dilution series of solutions of the compounds or DMSO only, was added to the cells which had been cultured in a 96-well dish, and then the cells were further cultured for 3 days.
# (§3) After adding 20 μL each of WST-8 (Kishida Chemical Co., Ltd.) to each well and culturing the cells for another 2 hours, the optical densities at 450 nm were measured against a reference wavelength of 650 nm, and were compared with the control group. […]
# EOL-1 = test: Inhibitory action against cell proliferation (WST-8), EOL-1; format: cell-based; details: Homo sapiens, EOL1, 72 h, EOL-1 cells, 3 days culture, read-out: concentration for 50% inhibition of cell proliferation (IC50), EOL-1
# Description: as §1, §2, §3
# cyclin D2-Cdk4 [1] = molecular target: T1, cyclin D2-Cdk4 (Homo sapiens, UniProt P11802); test: Cdk4 inhibitory action: cyclin D2-Cdk4 kinase activity, 33P-ATP, RB peptide substrate; format: biochemical; details: for K1/K4, selectivity for Cdk4 against Cdk1: IC50 of Cdk1 divided by IC50 of Cdk4; for K2/K4, selectivity for Cdk4 against Cdk2: IC50 of Cdk2 divided by IC50 of Cdk4; for K5/K4, selectivity for Cdk4 against Cdk5: IC50 of Cdk5 divided by IC50 of Cdk4; for K7/K4, selectivity for Cdk4 against Cdk7: IC50 of Cdk7 divided by IC50 of Cdk4; for K9/K4, selectivity for Cdk4 against Cdk9: IC50 of Cdk9 divided by IC50 of Cdk4
# T1 construct: made in house; host or cells: insect cell Sf9 (baculovirus)
# cyclin D2-Cdk4 [2] = molecular target: T1, cyclin D2-Cdk4; test: as above; format: biochemical; details: cyclin D2-Cdk4, 50 μM ATP
# Source text: First, the cDNA of Cdk4, and the cDNA of a fusion protein of cyclin D2, an activating factor of Cdk4, and glutathione S-transferase, were integrated into a baculovirus expression vector to prepare a recombinant baculovirus. This was co-transfected into insect cell Sf9 to express an active complex of the cyclin D2/glutathione S-transferase fusion protein-Cdk4 at a high level. The cells were recovered and solubilized, then the active complex was adsorbed onto Glutathione Sepharose, and a cyclin D2-Cdk4 complex was recovered using Precision Protease and was purified by HPLC column chromatography [EMBO J., Vol. 15, 7060-7069 (1996)].
# For the measurement of the activity of cyclin D2-Cdk4, a synthetic peptide (Arg-Pro-Pro-Thr-Leu-Ser-Pro-Ile-Pro-His-Ile-Pro-Arg) corresponding to amino acid residue No. 775-787 of RB protein was used as the substrate [EMBO J., Vol. 15, 7060-7069 (1996)].
# The reaction was performed by partially modifying the method of Kitagawa et al. [Oncogene, Vol. 7, 1067-1074 (1992)]. The volume of the reaction solution was 21.1 μL, and the composition of the reaction buffer (R buffer) was 20 mM Tris-hydrochloric acid buffer (pH 7.4)/10 mM magnesium chloride/4.5 mM 2-mercaptoethanol/1 mM ethylene glycol bis(β-aminoethyl ether)-N,N,N′,N′-tetraacetic acid (EGTA). To this reaction buffer, purified cyclin D2-Cdk4, 100 μM of the substrate peptide, 50 μM of non-labeled adenosine triphosphate (ATP), and 1 μCi of [γ-33P]-labeled ATP (2000 to 4000 Ci/mmole) were added to react at 30° C. for 45 minutes. Then, 10 μL of 350 mM phosphate buffer was added to the reaction system to terminate the reaction. The substrate peptide was adsorbed onto P81 paper filter on a 96-well plate, and then washed several times with 75 mM phosphate buffer. The radioactivity of the substrate peptide was measured with a liquid scintillation counter. The [γ-33P]-labeled ATP was purchased from Daiichi Pure Chemicals Co., Ltd.
# Addition of the test compound to the reaction system was carried out by first preparing a dilution series of solutions of the compound in dimethylsulfoxide (DMSO), and adding 1.1 μL of the dilutions. A control was provided by adding 1.1 μL of DMSO to the reaction system.
# A representative compound of the compounds according to the invention was selected, and the IC50 value of this compound for the cyclin D2-Cdk4 activity was determined.
# p35-Cdk5 = molecular target: T2, p35-Cdk5 (Homo sapiens, UniProt Q00535); test: Cdk5 inhibitory action: p35-Cdk5 kinase activity; format: biochemical; details: p35-Cdk5, 50 μM ATP
# T2 construct: purchased PanVera Corp; host or cells: insect cell
# Description: For the measurement of the activity of p35-Cdk5, a human-derived recombinant […] active complex, which was expressed in insect cell and purified, was purchased from PanVera Corp. A synthetic peptide (Ala-Lys-Ala-Lys-Lys-Thr-Pro-Lys-Lys-Ala-Lys-Lys) was used as the substrate.
# The reaction was performed by partially modifying the method of Kitagawa et al. [Oncogene, Vol. 7, 1067-1074 (1992)]. The volume of the reaction solution was 21.1 μL, and to the R buffer, purified cyclin p35-Cdk5, 0.01 mg/mL of the substrate peptide, 50 μM of non-labeled adenosine triphosphate (ATP), and 1 μCi of [γ-33P]-labeled ATP ([…]) were added to react at 30° C. for 10 minutes. Then, 10 μL of 350 mM phosphate buffer was added to the reaction system to terminate the reaction. The substrate peptide was adsorbed onto P81 paper filter on a 96-well plate, and then washed several times with 75 mM phosphate buffer. The radioactivity of the substrate peptide was measured with a liquid scintillation counter.
# Addition of the compound according to the invention to the reaction system was carried out by first preparing a dilution series of solutions of the compound in dimethylsulfoxide (DMSO), and adding 1.1 μL of the dilutions. A control was provided by adding 1.1 μL of DMSO to the reaction system.
# A representative compound of the compounds according to the invention was selected, and the IC50 value of this compound for the p35-Cdk5 activity was determined.
# T2 sequence (Q00535 whole entry): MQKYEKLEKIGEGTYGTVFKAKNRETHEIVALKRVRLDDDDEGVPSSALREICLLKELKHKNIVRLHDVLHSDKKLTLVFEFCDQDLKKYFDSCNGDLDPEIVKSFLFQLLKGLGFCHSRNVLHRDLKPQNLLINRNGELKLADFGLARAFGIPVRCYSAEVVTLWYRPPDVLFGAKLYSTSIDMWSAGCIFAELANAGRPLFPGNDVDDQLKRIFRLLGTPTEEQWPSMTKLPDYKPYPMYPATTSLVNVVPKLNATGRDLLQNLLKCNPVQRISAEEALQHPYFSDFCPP
# T2 sequence (Q15078 whole entry partner): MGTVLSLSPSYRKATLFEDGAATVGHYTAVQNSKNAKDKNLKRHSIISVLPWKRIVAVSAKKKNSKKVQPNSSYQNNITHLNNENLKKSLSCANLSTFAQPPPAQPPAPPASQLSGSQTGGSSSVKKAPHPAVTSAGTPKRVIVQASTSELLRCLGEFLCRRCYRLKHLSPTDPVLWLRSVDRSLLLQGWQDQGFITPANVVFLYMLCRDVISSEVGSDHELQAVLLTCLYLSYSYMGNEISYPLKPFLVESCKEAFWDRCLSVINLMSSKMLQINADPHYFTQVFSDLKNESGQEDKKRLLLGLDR
# T1 sequence (P11802 whole entry): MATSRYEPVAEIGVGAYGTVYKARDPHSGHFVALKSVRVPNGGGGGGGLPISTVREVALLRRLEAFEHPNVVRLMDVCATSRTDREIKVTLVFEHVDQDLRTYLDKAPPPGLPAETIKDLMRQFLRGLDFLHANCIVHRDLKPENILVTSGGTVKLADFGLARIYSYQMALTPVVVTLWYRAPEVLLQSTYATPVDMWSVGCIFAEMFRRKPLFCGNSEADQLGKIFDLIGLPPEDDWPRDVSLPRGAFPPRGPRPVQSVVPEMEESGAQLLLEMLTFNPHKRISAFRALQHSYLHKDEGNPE
# T1 sequence (P30279 whole entry partner): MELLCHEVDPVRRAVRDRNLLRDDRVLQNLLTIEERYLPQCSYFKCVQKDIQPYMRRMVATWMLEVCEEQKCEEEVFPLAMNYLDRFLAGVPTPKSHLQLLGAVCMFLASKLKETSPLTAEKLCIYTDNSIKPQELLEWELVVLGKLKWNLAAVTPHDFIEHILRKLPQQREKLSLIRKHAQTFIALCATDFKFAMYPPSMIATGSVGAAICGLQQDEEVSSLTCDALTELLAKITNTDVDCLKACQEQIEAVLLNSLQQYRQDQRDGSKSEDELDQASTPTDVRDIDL
"K1/K4, selectivity for Cdk4 against Cdk1 (cyclin D2-Cdk4 [1])","K2/K4, selectivity for Cdk4 against Cdk2 (cyclin D2-Cdk4 [1])","K5/K4, selectivity for Cdk4 against Cdk5 (cyclin D2-Cdk4 [1])","K7/K4, selectivity for Cdk4 against Cdk7 (cyclin D2-Cdk4 [1])","K9/K4, selectivity for Cdk4 against Cdk9 (cyclin D2-Cdk4 [1])",IC50 (cyclin D2-Cdk4 [2]) [nM],IC50 (p35-Cdk5) [nM],Structure (SMILES),IC50 (KU812) [nM],IC50 (EOL-1) [nM]
–,–,–,–,–,4.2,2900,"Cc1cc(-c2cnc(Nc3cnc(CN4CCCC4)cn3)s2)nc(SC2CCCCC2)n1 [Example 93, 5-[2-(cyclohexylthio)-6-methyl-4-pyrimidinyl]-2-[5-(1-pyrrolidinyl)methyl-2-pyrazinyl]amino-1,3-thiazole]",–,–
–,–,–,–,–,5.8,–,"Cc1cc(-c2cnc(Nc3cnc(CNC(C)C)cn3)s2)nc(SC2CCCCC2)n1 [Example 96, 5-[2-(cyclohexylthio)-6-methyl-4-pyrimidinyl]-2-[5-(isopropylamino)methyl-2-pyrazinyl]amino-1,3-thiazole]",–,–
–,–,–,–,–,6,2400,"Cc1cc(-c2cnc(Nc3cnc(CNCCO)cn3)s2)nc(SC2CCCCC2)n1 [Example 99, 5-[2-(cyclohexylthio)-6-methyl-4-pyrimidinyl]-2-[5-(2-hydroxyethylamino)methyl-2-pyrazinyl]amino-1,3-thiazole]",–,–
–,–,–,–,–,9,–,"CC(=O)N1CCN(Cc2ccc(Nc3ncc(-c4cc(C)nc(OC5CCCCC5)n4)s3)nc2)CC1 [Example 125, 5-[2-(cyclohexyloxy)-6-methyl-4-pyrimidinyl]-2-[5-(4-acetyl-1-piperazinyl)methyl-2-pyridyl]amino-1,3-thiazole]",180,5.6

# The next lines start with the molecule.
Structure (SMILES),"K1/K4, selectivity for Cdk4 against Cdk1 (cyclin D2-Cdk4 [1])","K2/K4, selectivity for Cdk4 against Cdk2 (cyclin D2-Cdk4 [1])","K5/K4, selectivity for Cdk4 against Cdk5 (cyclin D2-Cdk4 [1])","K7/K4, selectivity for Cdk4 against Cdk7 (cyclin D2-Cdk4 [1])","K9/K4, selectivity for Cdk4 against Cdk9 (cyclin D2-Cdk4 [1])",IC50 (cyclin D2-Cdk4 [2]) [nM],IC50 (p35-Cdk5) [nM],IC50 (KU812) [nM],IC50 (EOL-1) [nM]
"Cc1cc(-c2cnc(Nc3cnc(CN4CCN(C)CC4)cn3)s2)nc(OC2CCCCC2)n1 [Example 1, 5-[2-(cyclohexyloxy)-6-methyl-4-pyrimidinyl]-2-[5-(4-methyl-1-piperazinyl)methyl-2-pyrazinyl]amino-1,3-thiazole]",65,185,326,58,272,9.2,–,150,54
"Cc1cc(-c2cnc(Nc3cnc(CN4CCC(N(C)C)C4)cn3)s2)nc(OC2CCCCC2)n1 (centres unmarked) [Example 13, 5-[2-(cyclohexyloxy)-6-methyl-4-pyrimidinyl]-2-[5-(3-dimethylamino-1-pyrrolidinyl)methyl-2-pyrazinyl]amino-1,3-thiazole]",103,142,433,62,72,6,2600,–,–
"Cc1cc(-c2cnc(Nc3cnc(CN4CCN(C)CC4)cn3)s2)nc(NC2CCCCC2)n1 [Example 55, 5-[2-(cyclohexylamino)-6-methyl-4-pyrimidinyl]-2-[5-(4-methyl-1-piperazinyl)methyl-2-pyrazinyl]amino-1,3-thiazole]",–,–,–,–,–,3.8,–,–,–
"Cc1cc(-c2cnc(Nc3cnc(CN4CCC(N(C)C)C4)cn3)s2)nc(SC2CCCCC2)n1 (centres unmarked) [Example 94, 5-[2-(cyclohexylthio)-6-methyl-4-pyrimidinyl]-2-[5-(3-dimethylamino-1-pyrrolidinyl)methyl-2-pyrazinyl]amino-1,3-thiazole]",–,–,–,–,–,3.9,–,–,–
"Cc1cc(-c2cnc(Nc3cnc(CN4CCN(C)CC4)cn3)s2)nc(Sc2ccccc2Cl)n1 [Example 109, 5-[2-(2-chlorophenylthio)-6-methyl-4-pyrimidinyl]-2-[5-(4-methyl-1-piperazinyl)methyl-2-pyrazinyl]amino-1,3-thiazole]",–,–,–,–,–,5.7,–,–,–
"Cc1cc(-c2cnc(Nc3ccc(CN4CCC[C@H]4CO)cn3)s2)nc(NC2CCCCC2)n1 [Example 137, (2S)-5-[2-(cyclohexylamino)-6-methyl-4-pyrimidinyl]-2-[5-(2-hydroxymethyl-1-pyrrolidinyl)methyl-2-pyridyl]amino-1,3-thiazole]",167,625,417,167,153,7.2,–,–,–
